Assay results reported in ChEMBL document CHEMBL3991601, “The target landscape of clinical kinase drugs” (Science, 2017).
Active and inactive are the calls of the source. Cut-off read from the data, not from the text of the source, for most assays here: actives have a measured Kd and inactives only a lower limit.

Tests used:
[1] = biological target: Cyclin-dependent kinase 7 (Homo sapiens, UniProt P50613)
[2] = biological target: ATP-dependent RNA helicase DDX3X (Homo sapiens, UniProt O00571)
[3] = biological target: Eukaryotic translation initiation factor 2-alpha kinase 1 (Homo sapiens, UniProt Q9BQI3)
[4] = biological target: T1, Dual specificity mitogen-activated protein kinase kinase 5 (Homo sapiens, UniProt Q13163)
T1 sequence (Q13163 whole entry): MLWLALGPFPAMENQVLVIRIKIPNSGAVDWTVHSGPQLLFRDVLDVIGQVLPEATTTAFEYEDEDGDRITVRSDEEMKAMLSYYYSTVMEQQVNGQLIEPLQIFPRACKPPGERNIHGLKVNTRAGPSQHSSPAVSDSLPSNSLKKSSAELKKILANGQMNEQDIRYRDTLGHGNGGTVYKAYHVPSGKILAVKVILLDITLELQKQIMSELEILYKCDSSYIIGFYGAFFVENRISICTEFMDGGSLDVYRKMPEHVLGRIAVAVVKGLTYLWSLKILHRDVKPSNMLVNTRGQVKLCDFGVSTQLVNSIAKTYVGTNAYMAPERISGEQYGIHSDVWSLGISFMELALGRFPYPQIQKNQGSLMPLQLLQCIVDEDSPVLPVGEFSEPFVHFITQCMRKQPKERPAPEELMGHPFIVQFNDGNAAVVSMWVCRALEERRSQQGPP

[5] = biological target: Mitogen-activated protein kinase kinase kinase kinase 1 (Homo sapiens, UniProt Q92918)
[6] = biological target: T2, Serine/threonine-protein kinase Nek9 (Homo sapiens, UniProt Q8TD19)
T2 sequence (Q8TD19 whole entry): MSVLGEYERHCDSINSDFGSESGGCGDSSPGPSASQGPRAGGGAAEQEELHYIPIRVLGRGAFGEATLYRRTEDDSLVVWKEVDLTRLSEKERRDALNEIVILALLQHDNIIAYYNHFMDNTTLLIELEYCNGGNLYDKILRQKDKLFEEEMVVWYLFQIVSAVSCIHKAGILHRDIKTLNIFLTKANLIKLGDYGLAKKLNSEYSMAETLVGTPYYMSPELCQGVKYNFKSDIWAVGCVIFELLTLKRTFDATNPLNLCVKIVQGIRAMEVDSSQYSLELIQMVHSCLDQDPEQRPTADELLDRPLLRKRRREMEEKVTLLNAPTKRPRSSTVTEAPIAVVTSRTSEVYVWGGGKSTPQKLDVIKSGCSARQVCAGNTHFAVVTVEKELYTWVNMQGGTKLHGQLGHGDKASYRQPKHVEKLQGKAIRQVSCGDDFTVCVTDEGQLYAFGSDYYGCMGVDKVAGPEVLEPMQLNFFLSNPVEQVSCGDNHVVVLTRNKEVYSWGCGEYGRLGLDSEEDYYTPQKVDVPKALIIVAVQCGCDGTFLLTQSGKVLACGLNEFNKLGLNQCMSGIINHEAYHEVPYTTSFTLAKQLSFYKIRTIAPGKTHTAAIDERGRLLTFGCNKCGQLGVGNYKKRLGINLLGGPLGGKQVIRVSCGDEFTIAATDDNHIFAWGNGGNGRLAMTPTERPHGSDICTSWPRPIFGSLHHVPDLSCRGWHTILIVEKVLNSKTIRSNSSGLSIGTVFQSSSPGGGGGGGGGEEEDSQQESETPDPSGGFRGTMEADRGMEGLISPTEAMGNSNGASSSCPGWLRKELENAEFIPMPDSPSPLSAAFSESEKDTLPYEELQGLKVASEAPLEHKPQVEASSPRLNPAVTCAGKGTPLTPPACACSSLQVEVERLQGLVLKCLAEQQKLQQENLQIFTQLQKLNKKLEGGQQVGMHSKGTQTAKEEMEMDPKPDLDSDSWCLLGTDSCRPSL

[7] = biological target: T3, ATP-dependent 6-phosphofructokinase, platelet type (Homo sapiens, UniProt Q01813)
T3 sequence (Q01813 whole entry): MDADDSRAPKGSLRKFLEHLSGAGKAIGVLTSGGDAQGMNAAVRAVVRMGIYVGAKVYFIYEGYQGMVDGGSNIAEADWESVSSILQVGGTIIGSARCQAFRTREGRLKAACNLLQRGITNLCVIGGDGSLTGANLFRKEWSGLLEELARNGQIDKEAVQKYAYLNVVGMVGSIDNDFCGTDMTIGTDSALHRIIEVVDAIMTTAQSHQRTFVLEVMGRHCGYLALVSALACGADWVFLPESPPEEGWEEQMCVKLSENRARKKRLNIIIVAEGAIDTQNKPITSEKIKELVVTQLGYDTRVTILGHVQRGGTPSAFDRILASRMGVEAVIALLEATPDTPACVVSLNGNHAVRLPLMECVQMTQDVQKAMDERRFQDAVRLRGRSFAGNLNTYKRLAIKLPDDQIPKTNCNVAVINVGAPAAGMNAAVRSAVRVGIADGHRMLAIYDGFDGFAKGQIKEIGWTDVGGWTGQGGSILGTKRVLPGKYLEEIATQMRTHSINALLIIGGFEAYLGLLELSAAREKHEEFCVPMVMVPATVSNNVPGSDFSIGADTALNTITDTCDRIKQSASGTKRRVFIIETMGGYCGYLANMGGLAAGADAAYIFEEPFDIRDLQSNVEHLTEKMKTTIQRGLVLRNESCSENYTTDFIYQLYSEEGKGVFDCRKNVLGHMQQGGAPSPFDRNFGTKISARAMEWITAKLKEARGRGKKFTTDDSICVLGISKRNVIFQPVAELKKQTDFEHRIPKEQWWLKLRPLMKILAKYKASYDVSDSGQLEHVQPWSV

[8] = biological target: Serine/threonine-protein kinase N1 (Homo sapiens, UniProt Q16512)
[9] = biological target: Ribosomal protein S6 kinase alpha-3 (Homo sapiens, UniProt P51812)
[10] = biological target: TRAF2 and NCK-interacting protein kinase (Homo sapiens, UniProt Q9UKE5)
[11] = biological target: T4, EKC/KEOPS complex subunit TP53RK (Homo sapiens, UniProt Q96S44)
T4 sequence (Q96S44 whole entry): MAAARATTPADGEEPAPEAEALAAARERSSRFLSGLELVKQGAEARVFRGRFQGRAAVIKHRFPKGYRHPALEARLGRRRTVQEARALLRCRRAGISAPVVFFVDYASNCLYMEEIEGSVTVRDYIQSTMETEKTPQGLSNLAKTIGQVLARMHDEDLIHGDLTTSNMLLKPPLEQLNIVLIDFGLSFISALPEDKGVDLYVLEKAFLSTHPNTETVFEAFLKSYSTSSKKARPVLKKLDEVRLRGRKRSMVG

[12] = biological target: RAC-gamma serine/threonine-protein kinase (Homo sapiens, UniProt Q9Y243)
Note: in the data inactive means no Kd found up to 30 µM.

Mitogen-activated protein kinase kinase kinase kinase 1, sequence (Q92918 whole entry): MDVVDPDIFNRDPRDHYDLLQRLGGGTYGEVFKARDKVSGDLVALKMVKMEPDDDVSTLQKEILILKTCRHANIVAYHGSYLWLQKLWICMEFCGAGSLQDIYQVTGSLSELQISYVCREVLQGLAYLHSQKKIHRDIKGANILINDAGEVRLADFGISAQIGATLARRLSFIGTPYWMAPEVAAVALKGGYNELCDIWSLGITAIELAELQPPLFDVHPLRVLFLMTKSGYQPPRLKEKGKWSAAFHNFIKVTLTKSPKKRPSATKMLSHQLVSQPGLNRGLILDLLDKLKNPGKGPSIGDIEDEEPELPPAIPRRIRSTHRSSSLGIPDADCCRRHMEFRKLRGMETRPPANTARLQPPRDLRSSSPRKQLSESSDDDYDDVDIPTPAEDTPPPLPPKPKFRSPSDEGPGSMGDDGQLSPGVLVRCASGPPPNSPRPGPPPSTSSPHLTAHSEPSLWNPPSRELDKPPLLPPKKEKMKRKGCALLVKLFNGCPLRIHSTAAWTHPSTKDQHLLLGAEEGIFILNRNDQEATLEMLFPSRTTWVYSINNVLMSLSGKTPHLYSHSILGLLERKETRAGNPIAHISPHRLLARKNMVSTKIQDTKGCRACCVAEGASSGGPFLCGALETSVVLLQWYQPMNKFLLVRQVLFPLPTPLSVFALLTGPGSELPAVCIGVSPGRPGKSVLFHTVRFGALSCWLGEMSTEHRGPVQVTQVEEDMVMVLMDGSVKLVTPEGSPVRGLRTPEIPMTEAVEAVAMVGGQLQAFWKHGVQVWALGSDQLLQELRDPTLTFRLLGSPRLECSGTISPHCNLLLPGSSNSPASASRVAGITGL
Ribosomal protein S6 kinase alpha-3, sequence (P51812 whole entry): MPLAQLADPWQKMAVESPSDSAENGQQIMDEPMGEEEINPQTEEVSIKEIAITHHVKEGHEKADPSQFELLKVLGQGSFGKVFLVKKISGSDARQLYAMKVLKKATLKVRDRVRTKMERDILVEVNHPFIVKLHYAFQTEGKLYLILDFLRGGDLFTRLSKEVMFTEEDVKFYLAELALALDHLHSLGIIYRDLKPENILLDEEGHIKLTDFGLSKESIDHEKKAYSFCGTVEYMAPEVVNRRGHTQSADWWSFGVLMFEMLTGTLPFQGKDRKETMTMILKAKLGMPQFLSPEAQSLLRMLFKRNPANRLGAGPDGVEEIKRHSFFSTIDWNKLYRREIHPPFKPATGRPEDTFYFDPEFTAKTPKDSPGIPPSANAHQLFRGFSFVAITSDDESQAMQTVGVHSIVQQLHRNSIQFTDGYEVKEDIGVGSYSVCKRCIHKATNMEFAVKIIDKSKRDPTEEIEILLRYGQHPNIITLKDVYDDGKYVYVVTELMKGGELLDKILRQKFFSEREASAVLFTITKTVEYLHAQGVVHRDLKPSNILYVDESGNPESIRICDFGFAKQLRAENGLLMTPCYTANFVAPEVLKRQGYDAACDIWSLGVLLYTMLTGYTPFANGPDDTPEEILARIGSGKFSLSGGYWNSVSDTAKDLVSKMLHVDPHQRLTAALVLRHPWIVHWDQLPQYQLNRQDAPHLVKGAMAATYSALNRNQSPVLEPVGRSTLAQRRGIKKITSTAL
Cyclin-dependent kinase 7, sequence (P50613 whole entry): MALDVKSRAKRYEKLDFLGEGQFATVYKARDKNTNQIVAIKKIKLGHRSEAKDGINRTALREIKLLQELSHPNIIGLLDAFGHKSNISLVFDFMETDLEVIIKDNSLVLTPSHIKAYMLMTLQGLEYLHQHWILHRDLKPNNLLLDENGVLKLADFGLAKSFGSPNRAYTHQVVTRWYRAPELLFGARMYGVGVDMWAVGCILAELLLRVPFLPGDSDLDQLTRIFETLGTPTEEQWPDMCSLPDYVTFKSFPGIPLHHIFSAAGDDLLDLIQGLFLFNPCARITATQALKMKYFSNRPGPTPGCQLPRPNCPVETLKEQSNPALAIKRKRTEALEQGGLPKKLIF
ATP-dependent RNA helicase DDX3X, sequence (O00571 whole entry): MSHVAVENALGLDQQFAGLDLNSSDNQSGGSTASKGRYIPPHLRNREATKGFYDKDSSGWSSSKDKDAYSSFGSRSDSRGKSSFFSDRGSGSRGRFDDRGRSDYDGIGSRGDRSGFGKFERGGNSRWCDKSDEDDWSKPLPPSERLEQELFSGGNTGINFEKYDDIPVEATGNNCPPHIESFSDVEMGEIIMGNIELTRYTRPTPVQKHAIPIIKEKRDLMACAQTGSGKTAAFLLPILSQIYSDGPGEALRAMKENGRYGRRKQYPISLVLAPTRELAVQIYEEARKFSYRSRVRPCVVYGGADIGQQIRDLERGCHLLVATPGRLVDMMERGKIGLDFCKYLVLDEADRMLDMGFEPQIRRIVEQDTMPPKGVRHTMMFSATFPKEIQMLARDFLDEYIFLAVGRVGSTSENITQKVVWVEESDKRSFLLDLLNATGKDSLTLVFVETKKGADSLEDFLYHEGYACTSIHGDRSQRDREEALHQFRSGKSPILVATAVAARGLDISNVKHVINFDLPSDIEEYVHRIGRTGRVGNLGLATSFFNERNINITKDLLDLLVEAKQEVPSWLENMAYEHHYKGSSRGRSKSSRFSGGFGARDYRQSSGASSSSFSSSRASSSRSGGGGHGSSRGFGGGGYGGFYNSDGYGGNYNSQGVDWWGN
RAC-gamma serine/threonine-protein kinase, sequence (Q9Y243 whole entry): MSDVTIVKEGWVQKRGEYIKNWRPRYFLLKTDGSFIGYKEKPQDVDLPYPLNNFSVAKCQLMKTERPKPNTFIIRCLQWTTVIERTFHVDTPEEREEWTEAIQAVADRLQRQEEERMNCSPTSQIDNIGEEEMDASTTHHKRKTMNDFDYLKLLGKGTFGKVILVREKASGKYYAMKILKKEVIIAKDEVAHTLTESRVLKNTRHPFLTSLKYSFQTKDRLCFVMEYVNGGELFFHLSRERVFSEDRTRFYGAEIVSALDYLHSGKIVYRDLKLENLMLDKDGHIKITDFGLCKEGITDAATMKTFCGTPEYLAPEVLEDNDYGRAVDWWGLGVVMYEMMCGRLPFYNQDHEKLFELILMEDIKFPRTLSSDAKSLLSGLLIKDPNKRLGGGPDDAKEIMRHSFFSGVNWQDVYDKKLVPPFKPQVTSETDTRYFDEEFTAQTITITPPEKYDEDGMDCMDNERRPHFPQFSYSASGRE
TRAF2 and NCK-interacting protein kinase, sequence (Q9UKE5 whole entry): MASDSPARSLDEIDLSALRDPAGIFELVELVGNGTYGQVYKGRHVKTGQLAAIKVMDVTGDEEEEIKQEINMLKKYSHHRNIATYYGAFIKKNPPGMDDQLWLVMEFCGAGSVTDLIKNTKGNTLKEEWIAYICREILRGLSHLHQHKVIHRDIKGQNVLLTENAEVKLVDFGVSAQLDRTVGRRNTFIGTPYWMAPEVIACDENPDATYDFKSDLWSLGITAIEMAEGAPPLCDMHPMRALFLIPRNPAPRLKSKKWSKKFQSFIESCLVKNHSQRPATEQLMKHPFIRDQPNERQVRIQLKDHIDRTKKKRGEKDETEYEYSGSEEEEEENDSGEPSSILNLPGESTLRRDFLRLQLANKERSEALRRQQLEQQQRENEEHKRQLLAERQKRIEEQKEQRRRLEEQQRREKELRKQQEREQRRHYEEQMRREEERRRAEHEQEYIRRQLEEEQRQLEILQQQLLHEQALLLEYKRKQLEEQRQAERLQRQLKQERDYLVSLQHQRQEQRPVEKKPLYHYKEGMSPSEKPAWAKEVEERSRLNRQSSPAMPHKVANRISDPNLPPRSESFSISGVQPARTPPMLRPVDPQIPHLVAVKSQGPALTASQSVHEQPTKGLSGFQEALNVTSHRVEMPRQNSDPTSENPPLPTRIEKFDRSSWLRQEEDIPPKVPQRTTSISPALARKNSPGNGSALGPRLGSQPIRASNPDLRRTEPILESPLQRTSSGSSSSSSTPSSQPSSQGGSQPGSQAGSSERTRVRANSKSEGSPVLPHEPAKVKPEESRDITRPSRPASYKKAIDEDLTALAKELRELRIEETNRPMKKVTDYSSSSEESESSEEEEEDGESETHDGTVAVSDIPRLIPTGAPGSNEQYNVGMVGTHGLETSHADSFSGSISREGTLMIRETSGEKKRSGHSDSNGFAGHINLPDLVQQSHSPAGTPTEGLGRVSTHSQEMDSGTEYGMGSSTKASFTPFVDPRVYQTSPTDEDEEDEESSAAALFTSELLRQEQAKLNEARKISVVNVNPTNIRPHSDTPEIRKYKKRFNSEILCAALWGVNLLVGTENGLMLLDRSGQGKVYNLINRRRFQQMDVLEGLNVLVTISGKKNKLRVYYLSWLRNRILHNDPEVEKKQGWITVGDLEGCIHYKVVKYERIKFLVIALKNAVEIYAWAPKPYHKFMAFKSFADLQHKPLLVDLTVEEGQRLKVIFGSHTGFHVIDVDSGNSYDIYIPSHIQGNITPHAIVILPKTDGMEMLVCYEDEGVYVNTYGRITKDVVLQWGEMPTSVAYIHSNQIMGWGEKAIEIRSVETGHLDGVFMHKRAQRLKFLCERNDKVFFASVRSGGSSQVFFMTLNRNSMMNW
Eukaryotic translation initiation factor 2-alpha kinase 1, sequence (Q9BQI3 whole entry): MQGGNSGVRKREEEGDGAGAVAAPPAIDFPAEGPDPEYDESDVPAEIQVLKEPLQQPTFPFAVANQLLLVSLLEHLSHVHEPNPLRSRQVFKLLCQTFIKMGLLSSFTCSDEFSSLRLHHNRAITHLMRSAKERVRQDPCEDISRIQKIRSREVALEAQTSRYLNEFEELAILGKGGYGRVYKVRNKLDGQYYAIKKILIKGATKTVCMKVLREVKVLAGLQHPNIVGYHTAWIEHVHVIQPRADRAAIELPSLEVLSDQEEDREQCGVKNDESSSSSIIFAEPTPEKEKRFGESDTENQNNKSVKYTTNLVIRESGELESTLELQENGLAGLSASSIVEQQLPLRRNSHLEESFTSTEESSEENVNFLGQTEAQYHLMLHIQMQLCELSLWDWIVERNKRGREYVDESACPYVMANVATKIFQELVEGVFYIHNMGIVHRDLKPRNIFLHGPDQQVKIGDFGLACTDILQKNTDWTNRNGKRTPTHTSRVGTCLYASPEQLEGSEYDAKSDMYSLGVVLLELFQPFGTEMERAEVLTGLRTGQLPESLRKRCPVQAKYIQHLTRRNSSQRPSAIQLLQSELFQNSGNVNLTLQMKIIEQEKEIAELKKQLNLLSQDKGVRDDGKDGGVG

Compound | Kd [1] | Kd [2] | Kd [3] | Kd [4] | Kd [5] | Kd [7] | Kd [8] | Kd [9] | Kd [10] | Kd [11] | Kd [12] | Kd [6]
NC[C@@](O)(c1ccc(Cl)cc1)c1ccc(-c2cn[nH]c2)cc1 [AT-13148] | > 30 µM (inactive) | > 30 µM (inactive) | > 30 µM (inactive) | > 30 µM (inactive) | > 30 µM (inactive) | > 30 µM (inactive) | 0.025 µM (active) | > 30 µM (inactive) | > 30 µM (inactive) | > 30 µM (inactive) | – | > 30 µM (inactive)
CNC(=O)c1cc(COc2nnc(Nc3ccc(Cl)cc3)c3ccoc23)ccn1 [TELATINIB] | > 30 µM (inactive) | > 30 µM (inactive) | > 30 µM (inactive) | > 30 µM (inactive) | > 30 µM (inactive) | > 30 µM (inactive) | > 30 µM (inactive) | > 30 µM (inactive) | – | > 30 µM (inactive) | > 30 µM (inactive) | > 30 µM (inactive)
CCc1nc(C(N)=O)c(Nc2ccc(N3CCC(N4CCN(C)CC4)CC3)c(OC)c2)nc1NC1CCOCC1 [GILTERITINIB] | > 30 µM (inactive) | > 30 µM (inactive) | – | 2.04 µM (active) | – | > 30 µM (inactive) | > 30 µM (inactive) | 2.66 µM (active) | > 30 µM (inactive) | 2.72 µM (active) | > 30 µM (inactive) | > 30 µM (inactive)
Cc1cc(-c2cc(OC(=O)c3ccccc3)ccc2Cl)cc2nnc(Nc3ccc(OCCN4CCCC4)cc3)nc12 [TG100-801] | > 30 µM (inactive) | > 30 µM (inactive) | > 30 µM (inactive) | > 30 µM (inactive) | – | – | > 30 µM (inactive) | > 30 µM (inactive) | > 30 µM (inactive) | > 30 µM (inactive) | > 30 µM (inactive) | > 30 µM (inactive)
FC(F)(F)c1ccc(CNc2ccc(Cc3c[nH]c4ncc(Cl)cc34)cn2)cn1 [PEXIDARTINIB] | > 30 µM (inactive) | > 30 µM (inactive) | > 30 µM (inactive) | > 30 µM (inactive) | > 30 µM (inactive) | – | > 30 µM (inactive) | > 30 µM (inactive) | > 30 µM (inactive) | > 30 µM (inactive) | > 30 µM (inactive) | > 30 µM (inactive)
COc1ccc(-c2ccc3ncc4c(c3c2)n(-c2ccc(N3CCNCC3)c(C(F)(F)F)c2)c(=O)n4C)cn1 [BGT-226 FREE BASE] | > 30 µM (inactive) | > 30 µM (inactive) | > 30 µM (inactive) | > 30 µM (inactive) | > 30 µM (inactive) | > 30 µM (inactive) | > 30 µM (inactive) | > 30 µM (inactive) | – | 1.01 µM (active) | > 30 µM (inactive) | > 30 µM (inactive)
C=CCN(/C=C1/C(=O)O[C@H](COC)[C@@]2(C)C1=C(O)C(=O)C1=C2[C@H](OC(C)=O)C[C@]2(C)C(=O)CC[C@@H]12)CC=C [SONOLISIB] | > 30 µM (inactive) | > 30 µM (inactive) | > 30 µM (inactive) | > 30 µM (inactive) | > 30 µM (inactive) | – | > 30 µM (inactive) | > 30 µM (inactive) | > 30 µM (inactive) | > 30 µM (inactive) | > 30 µM (inactive) | > 30 µM (inactive)
O=C(O)c1ccc2c(c1)nc(Nc1cccc(Cl)c1)c1ccncc12 [SILMITASERTIB] | 7.12 µM (active) | > 30 µM (inactive) | 1.66 µM (active) | > 30 µM (inactive) | > 30 µM (inactive) | > 30 µM (inactive) | 20.4 µM (active) | > 30 µM (inactive) | > 30 µM (inactive) | – | > 30 µM (inactive) | > 30 µM (inactive)

Now from value to compound, other results behind:

Kd [1] | Kd [2] | Kd [3] | Kd [4] | Kd [5] | Kd [7] | Kd [8] | Kd [9] | Kd [10] | Kd [11] | Kd [12] | Compound | Kd [6]
> 30 µM (inactive) | > 30 µM (inactive) | > 30 µM (inactive) | > 30 µM (inactive) | > 30 µM (inactive) | > 30 µM (inactive) | > 30 µM (inactive) | > 30 µM (inactive) | > 30 µM (inactive) | > 30 µM (inactive) | – | Cc1cc(C(=O)Nc2cc(Oc3ccc4nc(NC(=O)C5CC5)cn4n3)ccc2C)n(C)n1 [TAK-593] | > 30 µM (inactive)
> 30 µM (inactive) | > 30 µM (inactive) | > 30 µM (inactive) | 3.35 µM | > 30 µM (inactive) | – | > 30 µM (inactive) | > 30 µM (inactive) | > 30 µM (inactive) | > 30 µM (inactive) | > 30 µM (inactive) | Cn1c(=O)c(F)c(Nc2ccc(I)cc2F)c2c(=O)n(C[C@@H](O)CO)cnc21 [TAK-733] | > 30 µM (inactive)
> 30 µM (inactive) | > 30 µM (inactive) | > 30 µM (inactive) | – | > 30 µM (inactive) | > 30 µM (inactive) | > 30 µM (inactive) | > 30 µM (inactive) | > 30 µM (inactive) | > 30 µM (inactive) | > 30 µM (inactive) | CC(C)(O)CC(=O)NCCn1ccc2ncnc(Nc3ccc(Oc4cccc(C(F)(F)F)c4)c(Cl)c3)c21 [TAK-285] | > 30 µM (inactive)
> 30 µM (inactive) | > 30 µM (inactive) | > 30 µM (inactive) | > 30 µM (inactive) | > 30 µM (inactive) | – | > 30 µM (inactive) | > 30 µM (inactive) | > 30 µM (inactive) | > 30 µM (inactive) | > 30 µM (inactive) | O=C(Nc1ccc(OC(F)(F)F)cc1)c1sccc1NCc1ccnc2ccccc12 [OSI-930] | > 30 µM (inactive)
> 30 µM (inactive) | > 30 µM (inactive) | > 30 µM (inactive) | > 30 µM (inactive) | > 30 µM (inactive) | – | > 30 µM (inactive) | > 30 µM (inactive) | > 30 µM (inactive) | > 30 µM (inactive) | > 30 µM (inactive) | COc1ccc2c(OCc3nnc4ccc(-c5ccccc5)nn34)ccnc2c1 [AMG-208] | > 30 µM (inactive)
